Experimental data reported in PMC3117668 (ACS medicinal chemistry letters, 2011).
In brackets after ≈: the same amount, converted by molar mass.

What was measured:
H37Rv TB = test: Whole cell MIC against H37Rv; format: cell-based; conditions: Mycobacterium tuberculosis
H37Rv-TB = test: MIC re-screen in the presence of 4% BSA and 10% FBS; format: cell-based, Mycobacterium tuberculosis; conditions: ATP and MABA readouts
M. bovis BCG = test: microbe, parasite or virus in culture; format: cell-based; conditions: Mycobacterium tuberculosis variant bovis BCG, read-out: MIC90 M. bovis BCG

Row | Structure (SMILES) | MIC (H37Rv TB) [µM] | MIC shift (H37Rv-TB) | other results
1 | Cc1ccn2c(C(=O)NCc3cccc(F)c3)c(C)nc2c1 [Compound 8] | ~0.3 (≈ 0.0892 µg/mL) |  | 
2 | Cc1ccn2c(C(=O)NCc3ccccc3)c(C)nc2c1 [Compound 1] |  | less than two fold | 
3 | CCOC(=O)c1c(C)nc2cc(C)ccn12 [ethyl 2,7-dimethylimidazo[1,2-a]pyridine-3-carboxylate] | ~65 (≈ 14.2 µg/mL) |  | 
4 | COc1cccc(CNC(=O)c2c(C)nc3ncc(C)cn23)c1 [Compound 10] |  | less than two fold | 
5 | Cc1ccn2c(C(=O)NCc3ccc(Cl)c(Cl)c3)c(C)nc2c1 [Compound 7] | 9 to 14 (≈ 3.13 to 4.88 µg/mL) |  | 
6 | CO[C@H]1/C=C/O[C@@]2(C)Oc3c(C)c(O)c4c(O)c(c(/C=N/N5CCN(C)CC5)c(O)c4c3C2=O)NC(=O)/C(C)=C\C=C\[C@H](C)[C@H](O)[C@@H](C)[C@@H](O)[C@@H](C)[C@H](OC(C)=O)[C@@H]1C [RMP, Rifampicin] |  |  | MIC90 (M. bovis BCG): < 0.78 µM
